{"source": "paper PMC3948889", "about": "“The Effects of LPM570065, a Novel Triple Reuptake Inhibitor, on Extracellular Serotonin, Dopamine and Norepinephrine Levels in Rats” (PLoS ONE, 2014)", "key": {"[1]": {"system": "immobility time in the forced swim test", "settings": "without significantly altering locomotor activity, cited from earlier work"}, "[2]": {"system": "extracellular NE levels in the rat striatum", "assay": "microdialysis: extracellular NE levels in the rat striatum"}, "[3]": {"system": "extracellular 5-HT levels in the rat striatum", "assay": "microdialysis: extracellular 5-HT levels in the rat striatum"}, "[4]": {"system": "extracellular DA levels in the rat striatum", "assay": "microdialysis: extracellular DA levels in the rat striatum"}, "[5]": {"system": "immobility time in the forced swim test", "settings": "tested 0.5, 1, 2 and 4 h post-dosing", "protocol": "Forced swim test was used to measure the depression-like behavior in rats after acute and chronic drug treatment. Animals were randomly divided into six groups. The animals in Groups 1, 2 and 3 were used for acute treatment, and the animals in Groups 4, 5 and 6 were used for chronic treatment (once a day for 14 days). […] The entire test was performed in 2 consecutive days: a 15-min pretest session on day 1 followed by a 5-min test session the next day. On the pretest day, rats were individually forced to swim for 15 min in a plastic cylinder (diameter 22 cm, height 46 cm) containing water (25±1°C) with a depth of 30 cm. On the test day, rats were placed in the cylinder again for a 5-min test trial at 0.5, 1, 2 and 4 h post-dosing (n = 10 rats per time point in each group). The total duration of immobilization was recorded. The criterion for immobilization was vertical floating in the water and movements necessary to keep the head above the water. After the test, animals were removed and dried with towels before returning to their home cage."}, "[6]": {"settings": "acute oral administration (oral solution, oral suspension 0.06 mmol·kg^−1)"}, "[7]": {"settings": "chronic oral suspension 0.06 mmol·kg^−1·day^−1 for 14 days"}}, "note": "Read-outs that look alike come from different tables or passages of the source.", "data": [{"compound": "CC(NC(C)(C)C)C(=O)c1cccc(Cl)c1", "note": "(stereo not shown) [bupropion]", "values": [{"measurement": "immobility time in the forced swim test", "setting": "[1]; 10 mg/kg", "result": "reduce the immobility time"}]}, {"compound": "CN(C)CC(c1ccc(O)cc1)C1(O)CCCCC1", "note": "(stereo not shown) [desvenlafaxine]", "values": [{"measurement": "effect on extracellular NE levels vs. relative vehicle", "setting": "[2]; acute intravenous administration 0.04 mmol·kg^−1", "result": "marked and significant increases"}, {"measurement": "effect on extracellular NE levels vs. relative vehicle", "setting": "[2]; [6]", "result": "slight but significant increases"}, {"measurement": "extracellular NE peak value (% of basal)", "setting": "[2]; chronic oral suspension 0.06 mmol·kg^−1·day^−1 for 14 days, at 60 min", "result": "139±9", "unit": "%"}, {"measurement": "extracellular 5-HT levels increased to (% of basal)", "setting": "[3]; acute intravenous solution 0.04 mmol·kg^−1, after the initial 90 min decrease, then returned to basal", "result": "162±15", "unit": "%"}, {"measurement": "decrease in extracellular 5-HT levels", "setting": "[3]; acute intravenous solution 0.04 mmol·kg^−1, during the first 90 min post-dosing", "result": 90, "unit": "%"}, {"measurement": "effect on extracellular 5-HT levels vs. relative vehicle", "setting": "[3]; [6]", "result": "slight but significant increases"}, {"measurement": "increase in 5-HT AUC0–240 min value of the vehicle group", "setting": "[3]; [7]", "result": "187±25", "unit": "%"}, {"measurement": "effect on extracellular DA levels", "setting": "[4]; acute, oral administration or intravenous administration", "result": "did not significantly alter the extracellular DA levels"}, {"measurement": "effect on extracellular DA levels", "setting": "[4]; [7]", "result": "did not significantly alter the extracellular DA levels"}, {"measurement": "immobility time in the forced swim test vs. vehicle", "setting": "[5]; acute oral suspension 0.06 mmol·kg^−1", "result": "only significantly reduced the immobility time at 1 h"}, {"measurement": "immobility time in the forced swim test vs. vehicle", "setting": "[5]; [7]", "result": "significantly reduced the immobility time"}]}, {"compound": "CN1Cc2c(N)cccc2C(c2ccccc2)C1", "note": "(stereo not shown) [nomifensine]", "values": [{"measurement": "immobility time in the forced swim test", "setting": "[1]; 2.5 mg/kg", "result": "reduce the immobility time"}]}]}
